Publication PMC8151276, “An Integrated Approach toward NanoBRET Tracers for Analysis of GPCR Ligand Engagement” (Molecules, 2021)

Molecular target: T1, MCHR2 (Homo sapiens, UniProt Q969V1)
T1 construct: purchased Promega (in-house HiBiT-GPCR construct library, NanoBRET)
Test: NanoBRET screen HiBiT-MCHR2 in HEK293
Format: binding
Protocol: Each tracer candidate was screened across the entire library of HiBiT-GPCR constructs using NanoBRET as the detection modality. As depicted in Figure 4A, the specificity of interactions was evaluated through decrease in BRET due to competitive displacement of a bound tracer by excess parental compound. Each tracer was analyzed for binding to each HiBiT-GPCR fusion in the absence and in the presence of competing parental compound. Briefly, HEK293 cells were transfected with HiBiT-GPCR constructs diluted into promoterless DNA to reduce expression and maximize translocation to the cell surface. Each tracer candidate was then screened at concentrations of 1 μM and 0.1 μM across cells expressing these fusions. Cells were treated for 1.5 h with tracer either alone or in the presence of 20 μM competing parental compound (i.e., control). BRET was measured upon addition of purified LgBiT and subsequent complementation with HiBiT genetically fused to a GPCR. The specificity of interactions was assessed through a decrease in BRET signal due to competitive displacement of the bound tracer. To further gauge the robustness of these interactions, the fold response over the control (i.e., BRETtracer/BRETcontrol) was calculated. We chose a 1.5-fold response, which translates to ≥7-fold signal over noise as the minimal threshold required to score an interaction as positive.
HiBiT-GPCR DNA constructs were diluted in 10 mM Tris pH 8 to a final concentration of 0.01 μg/μL, arrayed in 96-well plates and stored at −20 °C. For transfection, HEK293 cells were suspended in Opti-MEM (without phenol red) supplemented with 2% fetal bovine serum (Seradigm) and 100 units/mL penicillin–streptomycin (Gibco) at a final concentration of 220,000 cells/mL and dispensed into white 96-well plates at 90 μL/well. Subsequent transfections and screens were carried using an Agilent Bravo Automated Liquid Handling Platform. First, the 96-well HiBiT DNA arrays were diluted 25-fold in Opti-MEM (without serum or phenol red) to a final concentration of 0.0004 μg/μL and 20 μL of the diluted DNAs were transferred into new 96-well plates. Next, promoterless carrier DNA (1 μg/μL) was diluted 25-fold (0.04 μg/μL) and then dispensed into the diluted arrays at 20 μL/well. Following brief mixing, Viafect transfection reagent (Promega) diluted 16-fold into Opti-MEM was dispensed into the plates at 40 μL/well. After mixing by pipetting, plates were incubated for 10 min on the pipetting station deck. The DNA-transfection reagent complexes were then added to plates containing cells. To facilitate the screen, 10 μL of DNA-transfection reagent complexes were added in duplicates to the top 4 and bottom 4 rows, resulting in two identical 48-well arrays per plate. Plates with transfected cells were incubated for 18–20 h at 37 °C/5% CO2. A screen of each tracer across the entire library using two different concentrations requires duplicate plates of transfected cells. Depending on the number of tracers being screened, transfections can be scaled up using the same ratios. The next day, for each tracer, four 20× screening solutions in tracer dilution buffer (Promega) were prepared: two duplicates at final concentration of 20 μM and two duplicates at a final concentration of 2 μM. […] The four resulting solutions were diluted 4-fold in Opti-MEM without serum or phenol red to generate 5× solutions (5 µM and 0.5 µM tracer +/− 100 μM competing compound). To screen the library, a BioTek MultiFlo FX liquid dispenser was used to dispense 22.5 µL of tracer solution to the top 4 rows and 22.5 µL tracer + competing compound solution to the 4 bottom rows. Plates were briefly mixed on an orbital shaker and incubated for 1.5 h at room temperature. […] Plates were briefly mixed on an orbital shaker and incubated for 15 min to allow complementation.

T1 sequence (Q969V1 whole entry): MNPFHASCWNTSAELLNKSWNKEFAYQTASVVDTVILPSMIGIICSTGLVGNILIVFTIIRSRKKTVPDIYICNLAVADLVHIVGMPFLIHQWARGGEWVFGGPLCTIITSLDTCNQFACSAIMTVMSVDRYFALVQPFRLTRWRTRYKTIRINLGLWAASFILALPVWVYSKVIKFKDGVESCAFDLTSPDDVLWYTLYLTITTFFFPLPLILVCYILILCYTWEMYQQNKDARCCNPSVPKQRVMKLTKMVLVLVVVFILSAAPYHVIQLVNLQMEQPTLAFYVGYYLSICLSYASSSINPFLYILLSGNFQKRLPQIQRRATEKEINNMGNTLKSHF

CN1CCN(C2=Nc3cc(Cl)ccc3Nc3ccc(CNC(=O)CCOCCOCCOCCOCCNC(=O)CCc4ccc5n4[B-](F)(F)[N+]4=C(c6ccc[nH]6)C=CC4=C5)cc32)CC1 [Clozapine-b-2-NB590]
NanoBRET Fold Response (MCHR2, 0.1μM tracer): 1.00 | NanoBRET Fold Response (MCHR2, 1μM tracer): 0.97

CN(C)CCC=C1c2ccccc2CCc2ccc(C(=O)NCCNC(=O)CCOCCOCCOCCOCCNC(=O)CCc3ccc4n3[B-](F)(F)[N+]3=C(c5ccc[nH]5)C=CC3=C4)cc21 [Amitriptyline-b-2-NB590]
NanoBRET Fold Response (tracer at 0.1μM, listed as amitriptyline-b-2-NB590): 0.85 | NanoBRET Fold Response (tracer at 1μM, listed as amitriptyline-b-2-NB590): 0.90

CCOC(=O)c1cc(C#N)c(N2CCC(C(=O)NS(=O)(=O)Cc3ccccc3/C=C/C(=O)NCCNC(=O)CCc3ccc4n3[B-](F)(F)[N+]3=C(c5ccc[nH]5)C=CC3=C4)CC2)nc1C [AZD1283-1-NB590]
NanoBRET Fold Response (MCHR2, 0.1μM): 1.04 | NanoBRET Fold Response (MCHR2, 1μM): 1.06

CC(C)N(CC[C@H](c1ccccc1)c1cc(CCNC(=O)CCOCCOCCOCCOCCNC(=O)CCc2ccc3n2[B-](F)(F)[N+]2=C(c4ccc[nH]4)C=CC2=C3)ccc1O)C(C)C [Tolterodine-2-NB590]
NanoBRET Fold Response (MCHR2, tracer 0.1μM): 1.59 | NanoBRET Fold Response (MCHR2, tracer 1μM): 1.08

CC(C)N(CC[C@H](c1ccccc1)c1cc(CCNC(=O)c2ccc(CNC(=O)CCc3ccc4n3[B-](F)(F)[N+]3=C(c5ccc[nH]5)C=CC3=C4)cc2)ccc1O)C(C)C [Tolterodine-BZ-NB590]
NanoBRET Fold Response (MCHR2, tracer 0.1μM): 0.93 | NanoBRET Fold Response (MCHR2, tracer 1μM): 1.02

O=C(CCOCCOCCOCCOCCNC(=O)CCc1ccc2n1[B-](F)(F)[N+]1=C(c3ccc[nH]3)C=CC1=C2)NCCCN1CCN(C2=Nc3ccccc3Oc3ccc(Cl)cc32)CC1 [Loxapine-a-2-NB590]
NanoBRET Fold Response (MCHR2, tracer 0.1μM): 1.02 | NanoBRET Fold Response (MCHR2, tracer 1μM): 1.12

CN1CCN(C2=Nc3cc(Cl)ccc3N(CC(=O)NCCOCCOCCOCCOCCNC(=O)CCc3ccc4n3[B-](F)(F)[N+]3=C(c5ccc[nH]5)C=CC3=C4)c3ccccc32)CC1 [Clozapine-c-2-NB590]
NanoBRET Fold Response (MCHR2, 0.1μM tracer): 1.06 | NanoBRET Fold Response (MCHR2, 1μM tracer): 1.01

CN(C)CCC=C1c2ccccc2CCc2ccc(C(=O)NCCNC(=O)CCOCCOCCOCCOCCNC(=O)CCc3ccc4n3[B-](F)(F)[N+]3=C(c5ccc[nH]5)C=CC3=C4)cc21 [Amitriptyline-a-2-NB590]
NanoBRET Fold Response (tracer at 0.1μM): 0.97 | NanoBRET Fold Response (tracer at 1μM): 1.01

Cc1nc2n(c(=O)c1CCN1CCC(c3noc4cc(F)ccc34)CC1)CCCC2OC(=O)NCCOCCOCCOCCOCCNC(=O)CCc1ccc2n1[B-](F)(F)[N+]1=C(c3ccc[nH]3)C=CC1=C2 (stereo not shown) [Risperidone-2-NB590]
NanoBRET Fold Response (MCHR2, tracer 0.1μM): 0.96 | NanoBRET Fold Response (MCHR2, tracer 1μM): 0.97

COc1ccc2[nH]c(-c3ccc(CNC(=O)CCOCCOCCOCCOCCNC(=O)CCc4ccc5n4[B-](F)(F)[N+]4=C(c6ccc[nH]6)C=CC4=C5)cc3)c(CCNC(C)=O)c2n1 [AzomelatoninICO9-2-NB590]
NanoBRET Fold Response (0.1μM tracer): 1.29 | NanoBRET Fold Response (1μM tracer): 1.43

COc1ccccc1N1CCN(CCCCN2C(=O)c3ccc(CNC(=O)CCOCCOCCOCCOCCNC(=O)CCc4ccc5n4[B-](F)(F)[N+]4=C(c6ccc[nH]6)C=CC4=C5)cc3C2=O)CC1 [NAN-190-2-NB590]
NanoBRET Fold Response (MCHR2, tracer 0.1μM): 0.99 | NanoBRET Fold Response (MCHR2, tracer 1μM): 0.94

O=C(CCc1ccc2n1[B-](F)(F)[N+]1=C(c3ccc[nH]3)C=CC1=C2)NCCOCCOCCNC(=O)OCCOCCN1CCN(C2=Nc3ccccc3Sc3ccccc32)CC1 [Quetiapine-a-2-NB590]
NanoBRET Fold Response (MCHR2, tracer 0.1μM): 1.03 | NanoBRET Fold Response (MCHR2, tracer 1μM): 0.74

O=C(CCOCCOCCOCCOCCNC(=O)CCc1ccc2n1[B-](F)(F)[N+]1=C(c3ccc[nH]3)C=CC1=C2)NCCCN1CCN(C2=Nc3cc(Cl)ccc3Nc3ccccc32)CC1 [Clozapine-a-2-NB590]
NanoBRET Fold Response (MCHR2, 0.1μM tracer): 0.98 | NanoBRET Fold Response (MCHR2, 1μM tracer): 1.37

N#CN=C(NCCCOc1cccc(CN2CCCCC2)c1)NCCNC(=O)CCOCCOCCOCCOCCNC(=O)CCc1ccc2n1[B-](F)(F)[N+]1=C(c3ccc[nH]3)C=CC1=C2 [Aminopotentidine-2-NB590]
NanoBRET Fold Response (MCHR2, tracer 0.1μM): 0.97 | NanoBRET Fold Response (MCHR2, tracer 1μM): 1.03

O=C(CCc1ccc2n1[B-](F)(F)[N+]1=C(c3ccc[nH]3)C=CC1=C2)NCc1ccc(C(=O)NCCOCCOCCNCC(O)COc2cccc3ccccc23)cc1 (stereo not shown) [Propranolol-3-NB590]
NanoBRET Fold Response (MCHR2, 0.1μM): 0.91 | NanoBRET Fold Response (MCHR2, 1μM): 1.02

O=C(CCc1ccc2n1[B-](F)(F)[N+]1=C(c3ccc[nH]3)C=CC1=C2)NCc1ccc(C(=O)NCCOCCC(=O)N[C@@H]2CC[C@@]3(O)[C@H]4Cc5ccc(O)c6c5[C@@]3(CCN4CC3CC3)[C@H]2O6)cc1 [Naltrexone-3-NB590]
NanoBRET Fold Response (MCHR2, tracer 0.1μM): 1.10 | NanoBRET Fold Response (MCHR2, tracer 1μM): 1.01

COc1ccccc1N1CCN(CCCCN2C(=O)c3ccc(CNC(=O)CCOCCNC(=O)c4ccc(CNC(=O)CCc5ccc6n5[B-](F)(F)[N+]5=C(c7ccc[nH]7)C=CC5=C6)cc4)cc3C2=O)CC1 [NAN-190-3-NB590]
NanoBRET Fold Response (MCHR2, tracer 0.1μM): 1.09 | NanoBRET Fold Response (MCHR2, tracer 1μM): 0.72

Cc1cc2c(s1)Nc1ccccc1N=C2N1CCN(CCCNC(=O)CCOCCOCCOCCOCCNC(=O)CCc2ccc3n2[B-](F)(F)[N+]2=C(c4ccc[nH]4)C=CC2=C3)CC1 [Olanzapine-a-2-NB590]
NanoBRET Fold Response (MCHR2, tracer 0.1μM): 0.98 | NanoBRET Fold Response (MCHR2, tracer 1μM): 1.01

CCCn1c(=O)c2[nH]c(-c3ccc(OCC(=O)NCCNC(=O)CCOCCNC(=O)c4ccc(CNC(=O)CCc5ccc6n5[B-](F)(F)[N+]5=C(c7ccc[nH]7)C=CC5=C6)cc4)cc3)nc2n(CCC)c1=O [XAC-3-NB590]
NanoBRET Fold Response (MCHR2, tracer 0.1μM): 0.96 | NanoBRET Fold Response (MCHR2, tracer 1μM): 0.97

COc1ccc2c(n1)c(CCNC(C)=O)cn2CCNC(=O)CCc1ccc2n1[B-](F)(F)[N+]1=C(c3ccc[nH]3)C=CC1=C2 [Azamelatonin-1-NB590]
NanoBRET Fold Response (0.1μM tracer): 1.45 | NanoBRET Fold Response (1μM tracer): 0.86
